Results published in publication PMC5537056 (Leukemia, 2016).

Tests used:
Assay type in all cases: cell-based
MM1.S = experiment: Viability assay by flow cytometry
KMS11 = experiment: Viability assay by flow cytometry; conditions: read-out: LC50 (Viability); KMS11, 48 hrs
[1] = system: MM cell lines (RPMI8226, U266, MM1.S, KMS11); experiment: Proliferation assays, range over the four MM cell lines; conditions: read-out: GI50, range over MM cell lines
RPMI8226 = experiment: Viability assay by flow cytometry; conditions: read-out: LC50 (Viability); RPMI8226, 48 hrs
[2] = system: MM cell lines (RPMI8226, U266, MM1.S, KMS11); experiment: Viability assays, range over the four MM cell lines; conditions: read-out: LC50, range over MM cell lines
U266 = experiment: Viability assay by flow cytometry
PIM2 expression in U266 = experiment: Western blot of PIM2 protein expression; conditions: U266, IL-6 25 ng/ml
PIM2 expression in MM1.S = experiment: Western blot of PIM2 protein expression; conditions: IL-6 25 ng/ml
[3] = Homo sapiens, MM1.S, 48 h, read-out: cell viability

With N[C@@H]1CCCN(c2c(/C=C3\SC(=O)NC3=O)cccc2-c2ccccc2)C1 [AZD1208] the CC50 (MM1.S; read-out: LC50 (Viability), MM1S, 48 hrs) was 23.7 µM, the CC50 (KMS11) was 31.3 µM and the GI50 [1] was 0.7 to 4.7 µM. The CC50 (RPMI8226) was 30 µM, the CC50 [2] was 23 to 56 µM and the CC50 (U266; read-out: LC50 (Viability), U266, 48 hrs) was 56.6 µM.

With CC(C)C[C@H](NC(=O)[C@H](Cc1ccccc1)NC(=O)c1cnccn1)B(O)O [bortezomib] the viability at 0.0015 µM (MM1.S; [3]) was 18%.

C[C@@H]1C[C@H]2[C@@H]3CCC4=CC(=O)C=C[C@]4(C)[C@@]3(F)[C@@H](O)C[C@]2(C)[C@@]1(O)C(=O)CO [dexamethasone] was tested, and the viability at 5 µM (MM1.S; [3]) was 55%.

Work on N[C@@H](Cc1ccc(N(CCCl)CCCl)cc1)C(=O)O [melphalan] yielded a viability at 2 µM (MM1.S; [3]) of 36% and a viability at 4 µM (U266; Homo sapiens, U-266, read-out: cell viability) of 58%.

In the case of “rIL-6: Recombinant IL-6 purchased from R&D Systems”, the “upregulation of PIM2” value (PIM2 expression in U266) is reported as 1.3 fold and the “upregulation of PIM2” value (PIM2 expression in MM1.S) is reported as 3.2 fold.
